Results taken from publication PMC7316778 (Nature Communications, 2020).
“And” between values parts separate entries of the source, which are not always exact repeats. Equal entries are not always repeated. Where two headings read alike, the source gives them in different places.

Experiments:
Experiment in all cases: SelectScreen kinase assay
[1] = molecular target: T1, ULK1 (Homo sapiens, UniProt O75385)
T1 sequence (O75385 1-1050): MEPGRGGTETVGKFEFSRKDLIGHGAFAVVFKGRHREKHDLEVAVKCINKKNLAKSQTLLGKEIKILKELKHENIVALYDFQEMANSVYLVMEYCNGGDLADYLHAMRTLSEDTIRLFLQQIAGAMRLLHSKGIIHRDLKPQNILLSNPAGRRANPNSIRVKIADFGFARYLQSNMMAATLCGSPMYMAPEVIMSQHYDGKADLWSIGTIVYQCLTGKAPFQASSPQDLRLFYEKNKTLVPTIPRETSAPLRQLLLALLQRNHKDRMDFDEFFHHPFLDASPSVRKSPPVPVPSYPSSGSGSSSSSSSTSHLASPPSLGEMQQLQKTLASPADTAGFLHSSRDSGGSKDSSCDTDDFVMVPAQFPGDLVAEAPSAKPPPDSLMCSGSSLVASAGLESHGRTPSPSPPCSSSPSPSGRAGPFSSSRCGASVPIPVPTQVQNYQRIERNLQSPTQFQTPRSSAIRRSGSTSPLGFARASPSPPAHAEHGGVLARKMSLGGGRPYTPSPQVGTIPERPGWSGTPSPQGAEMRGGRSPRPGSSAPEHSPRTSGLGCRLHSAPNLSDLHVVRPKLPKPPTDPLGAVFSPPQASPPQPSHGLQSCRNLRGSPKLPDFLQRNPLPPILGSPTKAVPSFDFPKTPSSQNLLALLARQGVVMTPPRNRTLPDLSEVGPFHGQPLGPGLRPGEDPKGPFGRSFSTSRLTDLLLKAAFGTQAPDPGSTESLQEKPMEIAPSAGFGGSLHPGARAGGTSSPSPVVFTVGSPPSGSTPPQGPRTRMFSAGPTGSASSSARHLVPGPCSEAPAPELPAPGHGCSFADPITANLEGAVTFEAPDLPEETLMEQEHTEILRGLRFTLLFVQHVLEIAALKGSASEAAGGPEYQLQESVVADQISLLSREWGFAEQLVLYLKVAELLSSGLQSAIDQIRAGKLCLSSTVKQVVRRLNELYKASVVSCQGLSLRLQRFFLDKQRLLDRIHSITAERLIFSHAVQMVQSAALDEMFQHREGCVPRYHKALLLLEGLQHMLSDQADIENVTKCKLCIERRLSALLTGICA
Protocol: (§1) Selectivity profiling assays were performed by the Invitrogen SelectScreen™ Services. […] The concentration of ATP was selected to be equal to the KM, unless indicated otherwise.

[2] = molecular target: T2, PRKD1 (PKC mu) (Homo sapiens, UniProt Q15139)
T2 sequence (Q15139 1-912): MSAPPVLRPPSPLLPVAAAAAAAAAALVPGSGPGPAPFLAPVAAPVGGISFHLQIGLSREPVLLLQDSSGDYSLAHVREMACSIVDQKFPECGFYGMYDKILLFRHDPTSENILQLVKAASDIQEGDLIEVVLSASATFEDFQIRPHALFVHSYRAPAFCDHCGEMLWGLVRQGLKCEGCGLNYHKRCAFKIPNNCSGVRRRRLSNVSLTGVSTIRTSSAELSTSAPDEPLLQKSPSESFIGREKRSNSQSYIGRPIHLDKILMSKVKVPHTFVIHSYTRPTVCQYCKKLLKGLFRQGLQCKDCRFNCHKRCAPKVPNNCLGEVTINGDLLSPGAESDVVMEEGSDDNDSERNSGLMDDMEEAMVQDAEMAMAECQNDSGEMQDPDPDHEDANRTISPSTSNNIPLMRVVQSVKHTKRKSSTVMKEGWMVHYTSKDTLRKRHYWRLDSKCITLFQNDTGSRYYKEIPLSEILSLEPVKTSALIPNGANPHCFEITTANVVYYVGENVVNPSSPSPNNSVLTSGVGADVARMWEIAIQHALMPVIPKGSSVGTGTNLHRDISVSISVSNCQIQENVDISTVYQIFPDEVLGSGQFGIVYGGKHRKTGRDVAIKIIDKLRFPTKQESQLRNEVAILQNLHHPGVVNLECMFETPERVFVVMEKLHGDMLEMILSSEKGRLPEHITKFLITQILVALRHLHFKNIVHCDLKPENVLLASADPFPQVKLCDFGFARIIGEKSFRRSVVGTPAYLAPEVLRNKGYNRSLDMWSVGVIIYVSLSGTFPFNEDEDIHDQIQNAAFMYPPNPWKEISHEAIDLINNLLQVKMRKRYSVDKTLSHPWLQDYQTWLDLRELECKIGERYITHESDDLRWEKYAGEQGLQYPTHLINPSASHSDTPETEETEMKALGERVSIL
Protocol: as §1

[3] = molecular target: CDK3/cyclin E1 (Homo sapiens, UniProt Q00526); conditions: for Inhibition at 1 µM (%): CDK3/cyclin E1, LanthaScreen Binding
Chain of CDK3/cyclin E1 (Q00526 whole entry): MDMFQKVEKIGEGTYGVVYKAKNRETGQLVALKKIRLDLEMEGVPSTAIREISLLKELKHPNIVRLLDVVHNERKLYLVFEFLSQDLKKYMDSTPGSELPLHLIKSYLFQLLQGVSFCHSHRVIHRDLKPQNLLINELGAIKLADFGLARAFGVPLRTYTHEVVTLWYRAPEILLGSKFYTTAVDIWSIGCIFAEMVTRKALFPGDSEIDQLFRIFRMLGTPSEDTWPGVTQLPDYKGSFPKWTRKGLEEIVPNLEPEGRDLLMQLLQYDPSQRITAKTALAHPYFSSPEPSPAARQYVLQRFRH
Chain of CDK3/cyclin E1 (P24864 whole entry partner): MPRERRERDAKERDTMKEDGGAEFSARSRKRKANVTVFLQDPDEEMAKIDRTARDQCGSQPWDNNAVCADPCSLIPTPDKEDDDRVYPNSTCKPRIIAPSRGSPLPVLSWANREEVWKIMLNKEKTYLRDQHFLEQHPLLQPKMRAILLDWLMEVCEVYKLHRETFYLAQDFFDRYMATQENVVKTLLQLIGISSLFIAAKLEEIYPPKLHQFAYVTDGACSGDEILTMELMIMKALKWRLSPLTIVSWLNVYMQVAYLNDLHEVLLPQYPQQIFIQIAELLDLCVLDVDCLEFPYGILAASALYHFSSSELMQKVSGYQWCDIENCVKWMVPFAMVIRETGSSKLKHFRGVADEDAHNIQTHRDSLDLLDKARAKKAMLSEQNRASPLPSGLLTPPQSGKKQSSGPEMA
Protocol: as §1

[4] = molecular target: PAK3 (Homo sapiens, UniProt O75914)
Chain of PAK3 (O75914 whole entry): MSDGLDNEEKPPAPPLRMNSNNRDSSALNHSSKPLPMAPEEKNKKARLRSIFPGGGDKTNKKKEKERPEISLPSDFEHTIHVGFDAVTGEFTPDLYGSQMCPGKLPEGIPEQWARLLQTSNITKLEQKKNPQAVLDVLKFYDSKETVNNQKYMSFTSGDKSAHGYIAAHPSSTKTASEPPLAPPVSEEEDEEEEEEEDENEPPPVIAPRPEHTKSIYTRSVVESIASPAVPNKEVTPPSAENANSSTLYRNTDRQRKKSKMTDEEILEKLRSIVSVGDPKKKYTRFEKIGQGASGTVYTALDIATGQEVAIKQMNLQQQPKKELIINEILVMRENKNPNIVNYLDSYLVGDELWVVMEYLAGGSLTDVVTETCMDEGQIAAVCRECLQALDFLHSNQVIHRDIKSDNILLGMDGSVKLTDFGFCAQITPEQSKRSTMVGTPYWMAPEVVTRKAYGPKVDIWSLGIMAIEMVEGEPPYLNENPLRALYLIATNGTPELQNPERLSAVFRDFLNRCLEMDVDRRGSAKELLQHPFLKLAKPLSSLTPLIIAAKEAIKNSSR
Protocol: as §1

[5] = molecular target: CSK (Homo sapiens, UniProt P41240); conditions: for Inhibition at 1 µM (%): CSK, ZLYTE, ATP Km app
Chain of CSK (P41240 whole entry): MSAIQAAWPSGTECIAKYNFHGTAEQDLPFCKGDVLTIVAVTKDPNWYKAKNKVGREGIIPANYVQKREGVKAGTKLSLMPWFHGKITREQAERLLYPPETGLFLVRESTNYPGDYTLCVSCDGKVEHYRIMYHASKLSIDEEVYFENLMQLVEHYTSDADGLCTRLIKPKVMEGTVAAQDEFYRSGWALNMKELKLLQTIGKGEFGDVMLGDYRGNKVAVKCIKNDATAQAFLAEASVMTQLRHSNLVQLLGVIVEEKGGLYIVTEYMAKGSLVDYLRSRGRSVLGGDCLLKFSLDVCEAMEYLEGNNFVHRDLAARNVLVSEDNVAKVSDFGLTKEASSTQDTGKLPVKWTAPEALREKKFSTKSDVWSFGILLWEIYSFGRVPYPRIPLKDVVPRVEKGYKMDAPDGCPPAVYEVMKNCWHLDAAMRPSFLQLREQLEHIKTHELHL
Protocol: as §1

[6] = molecular target: MASTL (Homo sapiens, UniProt Q96GX5)
Chain of MASTL (Q96GX5 whole entry): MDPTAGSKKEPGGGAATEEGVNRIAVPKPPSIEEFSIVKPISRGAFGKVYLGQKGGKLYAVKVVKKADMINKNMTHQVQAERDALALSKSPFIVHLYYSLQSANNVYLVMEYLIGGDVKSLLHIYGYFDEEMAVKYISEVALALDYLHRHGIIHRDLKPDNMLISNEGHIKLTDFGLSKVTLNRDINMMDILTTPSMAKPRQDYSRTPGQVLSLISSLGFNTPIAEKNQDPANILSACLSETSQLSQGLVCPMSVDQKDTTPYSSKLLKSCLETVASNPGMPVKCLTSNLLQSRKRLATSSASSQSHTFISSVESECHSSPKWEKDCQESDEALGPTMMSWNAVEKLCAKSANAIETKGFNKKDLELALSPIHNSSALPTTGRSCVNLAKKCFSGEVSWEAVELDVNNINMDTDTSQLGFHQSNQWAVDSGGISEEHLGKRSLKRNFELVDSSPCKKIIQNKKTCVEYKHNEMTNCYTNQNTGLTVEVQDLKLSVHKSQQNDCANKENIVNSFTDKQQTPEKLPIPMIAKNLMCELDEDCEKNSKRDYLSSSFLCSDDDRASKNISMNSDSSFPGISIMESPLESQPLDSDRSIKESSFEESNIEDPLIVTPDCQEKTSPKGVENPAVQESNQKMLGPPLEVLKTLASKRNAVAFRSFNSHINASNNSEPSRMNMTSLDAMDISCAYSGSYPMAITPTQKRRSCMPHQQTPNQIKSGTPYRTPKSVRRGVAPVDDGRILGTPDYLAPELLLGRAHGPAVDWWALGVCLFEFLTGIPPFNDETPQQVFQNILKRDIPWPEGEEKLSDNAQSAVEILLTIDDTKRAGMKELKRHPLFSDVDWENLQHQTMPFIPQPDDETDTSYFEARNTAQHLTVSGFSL
Protocol: as §1

[7] = molecular target: MST1R (RON) (Homo sapiens, UniProt Q04912)
Chain of MST1R (RON) (Q04912 25-1400): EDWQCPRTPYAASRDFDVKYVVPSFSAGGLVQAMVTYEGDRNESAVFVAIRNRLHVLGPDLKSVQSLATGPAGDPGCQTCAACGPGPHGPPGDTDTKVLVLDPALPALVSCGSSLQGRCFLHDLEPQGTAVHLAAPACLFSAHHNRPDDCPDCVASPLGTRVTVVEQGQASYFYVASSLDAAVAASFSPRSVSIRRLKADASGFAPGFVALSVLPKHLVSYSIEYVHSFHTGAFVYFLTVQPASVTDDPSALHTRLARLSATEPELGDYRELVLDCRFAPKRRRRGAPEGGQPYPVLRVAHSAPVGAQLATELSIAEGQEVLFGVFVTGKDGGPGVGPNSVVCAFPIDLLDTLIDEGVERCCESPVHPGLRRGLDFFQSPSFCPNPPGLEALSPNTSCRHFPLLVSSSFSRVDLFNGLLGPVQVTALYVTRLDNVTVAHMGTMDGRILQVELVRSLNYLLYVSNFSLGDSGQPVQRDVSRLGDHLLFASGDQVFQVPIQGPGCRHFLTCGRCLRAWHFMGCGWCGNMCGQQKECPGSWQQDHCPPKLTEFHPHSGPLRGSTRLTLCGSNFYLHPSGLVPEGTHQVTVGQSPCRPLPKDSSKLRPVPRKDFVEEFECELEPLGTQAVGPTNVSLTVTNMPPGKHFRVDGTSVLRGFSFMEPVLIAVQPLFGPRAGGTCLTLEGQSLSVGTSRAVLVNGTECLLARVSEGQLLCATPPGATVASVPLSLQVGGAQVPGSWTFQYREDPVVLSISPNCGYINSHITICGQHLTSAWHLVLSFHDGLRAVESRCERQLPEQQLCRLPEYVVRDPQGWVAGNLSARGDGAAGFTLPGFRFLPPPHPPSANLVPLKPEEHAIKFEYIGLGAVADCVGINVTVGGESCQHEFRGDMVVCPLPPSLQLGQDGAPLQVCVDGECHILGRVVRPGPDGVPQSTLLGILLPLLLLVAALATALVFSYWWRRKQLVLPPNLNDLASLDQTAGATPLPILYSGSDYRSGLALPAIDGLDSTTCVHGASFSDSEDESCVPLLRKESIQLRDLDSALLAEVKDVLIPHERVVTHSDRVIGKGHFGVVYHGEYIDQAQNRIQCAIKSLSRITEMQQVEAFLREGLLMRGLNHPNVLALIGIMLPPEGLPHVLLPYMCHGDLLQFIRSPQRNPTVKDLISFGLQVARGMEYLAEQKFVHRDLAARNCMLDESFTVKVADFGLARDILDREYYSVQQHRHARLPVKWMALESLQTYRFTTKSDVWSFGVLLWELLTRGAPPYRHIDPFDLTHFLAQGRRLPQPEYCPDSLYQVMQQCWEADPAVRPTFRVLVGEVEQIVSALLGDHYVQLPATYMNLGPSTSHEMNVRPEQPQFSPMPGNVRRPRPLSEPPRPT
Protocol: as §1

[8] = molecular target: SRPK1 (Homo sapiens, UniProt Q96SB4)
Protocol: as §1

[9] = molecular target: MAPKAPK2 (Homo sapiens, UniProt P49137)
Chain of MAPKAPK2 (P49137 whole entry): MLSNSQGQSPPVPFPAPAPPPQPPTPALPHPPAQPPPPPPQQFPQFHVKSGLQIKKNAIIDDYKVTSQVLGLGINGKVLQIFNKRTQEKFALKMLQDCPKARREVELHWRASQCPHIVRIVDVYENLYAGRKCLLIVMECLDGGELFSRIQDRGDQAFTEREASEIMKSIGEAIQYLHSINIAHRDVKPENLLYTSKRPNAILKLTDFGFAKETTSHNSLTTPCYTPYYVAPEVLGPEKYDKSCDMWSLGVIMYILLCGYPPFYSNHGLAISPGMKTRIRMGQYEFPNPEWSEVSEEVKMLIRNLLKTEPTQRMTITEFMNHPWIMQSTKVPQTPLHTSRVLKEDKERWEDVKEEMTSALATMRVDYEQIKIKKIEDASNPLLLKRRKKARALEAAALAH
Protocol: as §1

[10] = molecular target: CSNK1D (CK1 delta) (Homo sapiens, UniProt P48730); conditions: 1 h, 1 μM WEL028, 1 h preincubation
Protocol: as §1

[11] = molecular target: PRKG1 (Homo sapiens, UniProt Q13976)
Protocol: as §1

[12] = molecular target: ACVR2A (Homo sapiens, UniProt P27037)
Chain of ACVR2A (P27037 20-513): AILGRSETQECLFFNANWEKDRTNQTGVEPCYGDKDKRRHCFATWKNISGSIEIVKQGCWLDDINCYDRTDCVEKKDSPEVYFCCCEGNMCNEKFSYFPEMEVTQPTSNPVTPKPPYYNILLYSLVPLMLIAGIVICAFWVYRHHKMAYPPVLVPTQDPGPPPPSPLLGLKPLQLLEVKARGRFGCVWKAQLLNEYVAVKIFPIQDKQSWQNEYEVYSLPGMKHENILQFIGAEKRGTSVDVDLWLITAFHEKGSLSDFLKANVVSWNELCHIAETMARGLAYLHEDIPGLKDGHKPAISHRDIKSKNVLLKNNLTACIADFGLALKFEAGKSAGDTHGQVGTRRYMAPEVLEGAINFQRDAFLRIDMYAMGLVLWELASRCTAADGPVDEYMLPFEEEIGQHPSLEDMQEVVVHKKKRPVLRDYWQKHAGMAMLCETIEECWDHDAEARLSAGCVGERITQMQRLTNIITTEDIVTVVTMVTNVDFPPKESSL
Protocol: as §1

[13] = 1 µM, ZLYTE, ATP Km app, listed as WEL028, 1 µM
[14] = 1 h, 1 μM WEL028, 1 h preincubation

C#CCOc1ccc(Nc2ncc(Cl)c(Nc3ccccc3NC(=O)C=C)n2)c(OC)c1 [Compound 6]
Inhibition (%) ([1]; 1 μM WEL028, 1 h preincubation): 4%
Inhibition at 1 µM (%) ([1]; 1 µM, LanthaScreen Binding, listed as WEL028, 1 µM): 4%
inhibition at 1 µM ([1]; read-out: Inhibition at 1 µM (%), 1 µM, LanthaScreen Binding): 5%
Inhibition at 1 µM (%) [2, 13]: 9%
inhibition at 1 µM [2, 14]: 11%
inhibition at 1 µM ([2]; read-out: Inhibition at 1 µM (%), 1 µM, ZLYTE, ATP Km app): 12%
Inhibition (%) ([3]; 1 μM WEL028, 1 h preincubation): 1%
Inhibition at 1 µM (%) [3]: -3%
Inhibition at 1 µM (%) ([3]; listed as WEL028, 1 µM): 5%
inhibition at 1 µM [4, 14]: 7%
Inhibition at 1 µM (%) ([4]; PAK3, 1 µM, ZLYTE, ATP Km app, listed as WEL028, 1 µM): 6%
inhibition at 1 µM ([4]; read-out: Inhibition at 1 µM (%), PAK3, 1 µM, ZLYTE, ATP Km app): 7%
Inhibition (%) ([5]; 1 μM WEL028, 1 h preincubation): 5%
Inhibition at 1 µM (%) [5]: 2%
Inhibition at 1 µM (%) ([5]; listed as WEL028, 1 µM): 8%
Inhibition (%) ([6]; 1 μM WEL028, 1 h preincubation): 3%
Inhibition at 1 µM (%) ([6]; MASTL, 1 µM, LanthaScreen Binding, listed as WEL028, 1 µM): 6% and 0%
inhibition at 1 µM [7, 14]: 5%
Inhibition at 1 µM (%) ([7]; MST1R (RON), 1 µM, ZLYTE, ATP Km app, listed as WEL028, 1 µM): 10% and 0%
Inhibition at 1 µM (%) [8, 13]: 2% and 11%
inhibition at 1 µM [8, 14]: 7%
inhibition at 1 µM [9, 14]: 7%
Inhibition at 1 µM (%) ([9]; MAPKAPK2, 1 µM, ZLYTE, ATP Km app, listed as WEL028, 1 µM): 5%
inhibition at 1 µM ([9]; read-out: Inhibition at 1 µM (%), MAPKAPK2, 1 µM, ZLYTE, ATP Km app): 8%
inhibition at 1 µM [10]: 18%
Inhibition at 1 µM (%) [11, 13]: -6% and 0%
inhibition at 1 µM [11, 14]: -3%
inhibition at 1 µM [12, 14]: 5%
Inhibition at 1 µM (%) ([12]; ACVR2A, 1 µM, LanthaScreen Binding, listed as WEL028, 1 µM): 6%
inhibition at 1 µM ([12]; read-out: Inhibition at 1 µM (%), ACVR2A, 1 µM, LanthaScreen Binding): 4%
